“Also recorded” adds a separate entry of the source. Like-named read-outs stand apart in the source and are kept apart here.

The conditions of data set [1]: oral, maximum dose of 800 mg 5 times per day, most patients; cited from earlier work.
The conditions of data set [2]: cited from earlier work.
A short description of data set [3]: Renal function by creatinine clearance in one patient. It counts as in vivo, human. The settings on record: from ~29 mL/min before. The text has this: This treatment is useful, not only in stopping the progression of the diseases, but in returning more of organ function previously lost. Text books claim that organ function lost to these diseases can never be recovered, but this treatment has succeeded in recovering nearly all lost organ function. One of the diseases for which a large return of function appears achievable is progressive loss of renal function by unknown cause, but suspected to be autoimmune disease related. A clinical laboratory measure of kidney function is creatinine clearance. Creatinine is the metabolic product formed from creatine when food is converted to energy. Creatinine is produced at a steady state and is affected very little by diet or normal physical activities. When a subject's kidneys are damaged and/or cannot function normally, the amount of creatinine excreted in the subject's urine decreases while its level in the blood increases. Thus, the blood level of creatinine indicates how well the kidneys are working A higher than normal blood level of creatinine usually means the kidneys are not functioning properly. […] As the measured kidney function improves a parallel process occurs in other affected tissues or organs, with a diminution of the visible inflammation, swelling, pain, grinding and clicks in the afflicted articular joints. […]

Data set [4] concerns HSV-II. Briefly: Suppression of vesicle formation, prodrome and viral shedding in person with ongoing HSV-II infection. It counts as in vivo, human. An excerpt: The inventor in this application is aware of the prior art teaching of U.S. Pat. No. 5,559,114 (“'114”) and International Application No. PCT/US95/16207 (“16207”) that describe the treatment of certain autoimmune diseases using higher than FDA-approved amounts of certain 2-amino purine derivatives. According to the teachings of the '114 patent and the 16207 application, one compound useful was acyclovir (or its precursor valacyclovir) at a level of 20 to 50 g per day for a 100 kg subject (or 5-10 g of valacyclovir). Another compound was famciclovir (the precursor of penciclovir) at about 4-10 g per day for a 100 kg subject ([…]). In following the treatment regime so taught for a subject having HSV-II infection and with the drug used to suppress autoimmune disease signs or symptoms, the inventor of the present invention observed that although the signs or symptoms of the subject's autoimmune disease improved, the subject continued to experience discomfort even if the high dose regimen of famciclovir described in the '114 patent was followed for a number of years. In addition, the subject continued to have prodrome episodes, vesicle outbreaks, and viral shedding. The prodrome is the sensation of tingling, pain or both in an area where the herpetic vesicles will appear within 24 to 48 hours. This is a very reliable signal that vesicles will appear on schedule. Vesicles are blisters or ulcers that appear on the skin or various mucous membranes as a result of the virus's replication process destroying cells that it has invaded. Viral shedding means that the virus is active on the skin, even though there is no prodrome or vesicle formation, and can be transmitted to another subject through skin contact, kissing, sexual intercourse, or oral sex.
This inventor interprets this to mean that viral shedding has been reduced dramatically, at least 90%. It is probably that viral shedding has been stopped completely. […]

A short description of data set [5]: Aseptic meningio-encephalitis subject treated with much higher doses. It counts as in vivo, human. To be noted: much higher doses than '114. An excerpt:
While the treatment of autoimmune disease using high levels of the anti-herpetic drugs taught in patent '114 provided noticeable improvements in a patient, signs or symptoms lingered even with ongoing treatment. Knowing the warning of the anti-herpetic drug labels that were on the market against using higher doses, increasing the dose even further was definitely contraindicated. However, the inventor was confronted with a problem of a subject presenting with extremely painful migraine type headache, which was diagnosed to be aseptic (not bacterial) meningio-encephalitis. […] The inventor also discovered that by using the much higher doses of famciclovir than previously taught in '114, the need to titrate a subject to tolerance of the drug could be avoided, that is the higher doses were effective at ameliorating the signs or symptoms of the disease without the accompanying pain of starting at a low dose and increasing it to a therapeutically effective level, as experienced with the doses of '114. While not wishing to be bound by a particular theory, it is thought that by regularly administering the higher levels the drug, a subject avoids a fluctuating blood level that can add to the irritation of already irritated nerves by major influxes of drug at a high level after having been at a lower level in the subject. […]

The conditions of data set [6]: cited from earlier work. The source holds these as a separate data set.

As for `Nc1nc2c(ncn2COCCO)c(=O)[nH]1` [acyclovir, 2-amino-1,9-dihydro-9-[(2-hydroxyethoxy)methyl]-6H-purin-6-one], the blood level entry in data set [1] is reported as “about 1.61 μg/mL”. Further, in data set [2] (lupus patient, between 40 and 50 g per day), the “effect on pain, muscle spasms, joint tenderness and butterfly rash” value is “controlled pain, muscle spasms, joint tenderness and the butterfly rash”.

`CC(=O)OCC(CCn1cnc2cnc(N)nc21)COC(C)=O` [famciclovir, 2-[2-(2-amino-9H-purin-9-yl)ethyl]-1,3-propanediol diacetate]: the creatinine clearance in data set [3] (doses of '114, same patient) is approximately 89 mL/min; in data set [3] (very high doses, one patient), “more than 140 mL/min”. Also, the viral shedding reduced entry in data set [4] (300 mg/kg/day, inventor's interpretation from suppressed sensations) is given as “at least 90%”. Also, the “prodrome and vesicle outbreak” value in data set [4] (10-12 g per day ('114 dose level)) is “continued to experience prodrome and vesicle outbreak”. The vesicle formation result in data set [4] (ongoing dosage of 300 mg/kg/day, 300 mg/kg/day) is given as “no new vesicles form; also recorded: total suppression”. In data set [5], the “signs or symptoms of the encephalitis” value is recorded as “alleviated”. Further, the “effect on pain, muscle spasms, joint tenderness and butterfly rash” value in data set [2] (10-12 g per day) is “same effect”. Besides, in data set [6] (in vivo, po), the oral bioavailability is listed as 77±8%.

For `CC(C)[C@H](N)C(=O)OCCOCn1cnc2c(=O)[nH]c(N)nc21` [valacyclovir, L-valine, 2-[(2-amino-1,6-dihydro-6-oxo-9H-purin-9-yl)methoxy]ethyl ester], the oral bioavailability in data set [6] (oral) is 55±9%.

(Values after US8853222B2, “Treatment of herpes virus related diseases” (priority 2008, dated 2014).)
